Reference: patent publication US20210269434A1, “TRICYCLIC COMPOUNDS AS INHIBITORS OF KRAS” (Incyte Corporation, priority 2020, published 2021)

Biological target: KRAS G12D (Homo sapiens, UniProt P01116, G12D)
Assay: GDP-GTP exchange assay (KRAS_G12D exchange)
Assay type: biochemical
Conditions: bodipy loaded KRAS G12D 2.5 nM; 4 hours incubation after GppNHp-SOS1; read-out: G12D_exchange
Experimental: Example A. GDP-GTP Exchange Assay
The inhibitor potency of the exemplified compounds was determined in a fluorescence based guanine nucleotide exchange assay, which measures the exchange of bodipy-GDP (fluorescently labeled GDP) for GppNHp (Non-hydrolyzable GTP analog) to generate the active state of KRAS in the presence of SOS1 (guanine nucleotide exchange factor). Inhibitors were serially diluted in DMSO and a volume of 0.1 μL was transferred to the wells of a black low volume 384-well plate. 5 μL/well volume of bodipy-loaded KRAS G12C diluted to 5 nM in assay buffer (25 mM Hepes pH 7.5, 50 mM NaCl, 10 mM MgCl2 and 0.01% Brij-35) was added to the plate and pre-incubated with inhibitor for 2 hours at ambient temperature. Appropriate controls (enzyme with no inhibitor or with a G12C inhibitor (AMG-510)) were included on the plate. The exchange was initiated by the addition of a 5 μL/well volume containing 1 mM GppNHp and 300 nM SOS1 in assay buffer. The 10 μL/well reaction concentration of the bodipy-loaded KRAS G12C, GppNHp, and SOS1 were 2.5 nM, 500 uM, and 150 nM, respectively. The reaction plates were incubated at ambient temperature for 2 hours, a time estimated for complete GDP-GTP exchange in the absence of inhibitor. For the KRAS G12D and G12V mutants, similar guanine nucleotide exchange assays were used with 2.5 nM as final concentration for the bodipy loaded KRAS proteins and with 4 hours and 3 hours incubation after adding GppNHp-SOS1 mixture for G12D and G12V respectively. A cyclic peptide described to selectively bind G12D mutant (Sakamoto et al., BBRC 484.3 (2017), 605-611) or internal compounds with confirmed binding were used as positive controls in the assay plates. Fluorescence intensities were measured on a PheraStar plate reader instrument (BMG Labtech) with excitation at 485 nm and emission at 520 nm.
Either GraphPad prism or XLfit was used to analyze the data. The IC50 values were derived by fitting the data to a four parameter logistic equation producing a sigmoidal dose-response curve with a variable Hill coefficient. Prism equation: Y=Bottom+(Top−Bottom)/(1+10^((Log lC50−X)*Hill slope)); XLfit equation: Y=(A+((B−A)/(1+((X/C)^D)))) where X is the logarithm of inhibitor concentration and Y is the response.

Sequence of KRAS G12D (P01116 1-188 isoform P01116-2 G12D): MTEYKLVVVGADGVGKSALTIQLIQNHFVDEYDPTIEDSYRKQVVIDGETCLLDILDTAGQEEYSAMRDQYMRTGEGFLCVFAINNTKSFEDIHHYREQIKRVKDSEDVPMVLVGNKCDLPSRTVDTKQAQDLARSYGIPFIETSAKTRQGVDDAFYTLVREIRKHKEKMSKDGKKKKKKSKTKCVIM

Row | IC50 | Structure (SMILES)
1 | ≤ 100 nM | CN(C)C(=O)CCc1nc2c(-c3ccc(=O)n(C)c3)nc3c(F)c(-c4cc(O)cc5ccccc45)c(CCC#N)cc3c2n1C1C2CNC1C2 (stereo not drawn) [Example 298, 3-(1-((endo)-2-azabicyclo[2.1.1]hexan-5-yl)-8-(2-cyanoethyl)-6-fluoro-7-(3-hydroxynaphthalen-1-yl)-4-(1-methyl-6-oxo-1,6-dihydropyridin-3-yl)-1H-imidazo[4,5-c]quinolin-2-yl)-N,N-dimethylpropanamide]
2 | ≤ 100 nM | CN(C)C(=O)CCc1nc2c(N3CC(N(C)C)C3)nc3c(F)c(-c4cc(O)cc5ccccc45)c(Cc4ccccc4C#N)cc3c2n1C1C2CNC1C2 (stereo not drawn) [Example 299, 3-(1-((endo)-2-azabicyclo[2.1.1]hexan-5-yl)-8-(2-cyanobenzyl)-4-(3-(dimethylamino)azetidin-1-yl)-6-fluoro-7-(3-hydroxynaphthalen-1-yl)-1H-imidazo[4,5-c]quinolin-2-yl)-N,N-dimethylpropanamide]
3 | ≤ 100 nM | CN(Cc1ccccn1)C(=O)CCc1nc2c(N3CC(N(C)C)C3)nc3c(F)c(-c4cc(O)cc5ccccc45)c(CCC#N)cc3c2n1C1C2CNC1C2 (stereo not drawn) [Example 301a, 3-(1-((endo)-2-azabicyclo[2.1.1]hexan-5-yl)-8-(2-cyanoethyl)-4-(3-(dimethylamino)azetidin-1-yl)-6-fluoro-7-(3-hydroxynaphthalen-1-yl)-1H-imidazo[4,5-c]quinolin-2-yl)-N-methyl-N-(pyridin-2-ylmethyl)propanamide]
